What was measured:
A549 = assay: MTT assay growth inhibition; format: cell-based, human; settings: Homo sapiens, A549; MTT, 72 h; read-out: 50% growth inhibition concentration (GI50)
Description: (§1) The cytotoxicity of the tested substances was tested using the MTT (3-(4,5-dimethylthiazol-2-yl)-2,5-diphenyltetrazolium bromide) assay, with some modifications, and 2500 cells per well for the MCF7, HEK293T, and A549 cell lines or 4000 cells per well for the VA-13 cell line were plated in 135 µL of DMEM-F12 media (Gibco, Waltham, MA, USA) in a 96-well plate and incubated in the 5% CO2 incubator for first 16 h, without treatment. Then, 15 µL of media-DMSO solutions of the tested substances was added to the cells (the final DMSO concentrations in the media were 1% or less) and treated cells for 72 h with 25 nM–50 µM (eight dilutions) of our substances (triplicate each), and serial DMSO dilutions and doxorubicin were used as controls. The MTT reagent (Paneco LLC, Moscow, Russia) was then added to cells to a final concentration of 0.5 g/L (10× stock solution in PBS was used) and incubated for 2.5 h at 37 °C in the incubator under an atmosphere of 5% CO2. The MTT solution was then discarded, and 140 µL of DMSO (PharmaMed LLC, Krasnodarsky Krai, Russia) was added. The plates were swayed on a shaker (60 rpm) to dissolve the formazan. The absorbance was measured using a microplate reader (VICTOR X5 Light Plate Reader, PerkinElmer, Waltham, MA, USA) at a wavelength of 565 nm (in order to measure formazan concentration). The results were used to construct a dose-response graph and to estimate the CC50 value.

Listeria monocytogenes = assay: MIC determination, broth microdilution; format: cell-based
From the text: (§2) Standard laboratory strains of Bacillus subtilis subs. subtilis Cohn 1872, stains BR151, and 168, Staphylococcus aureus subsp. aureus Rosenbach 1884 strains JCM 2151 and entry MC#144 (from the Microorganisms Collection of the Moscow State University), Listeria monocytogenes Pirie 1940, Mycobacterium smegmatis Lehmann and Neumann 1899 (MC#377), and Escherichia coli Castellani and Chalmers 1919, strain JW5503 (with the deletion of tolC gene), which are resistant to the chloramphenicol strains, J53rif, C600rif/pIB55-1, C600rif/pIP162-1, and C600recA naI, were used.
(§3) S. aureus was grown in Bacto Tryptic Soy Broth, L. monocytogenes in Brain Heart Infusion Broth, and E. coli in LB. Bacterial cells were grown at 30 °C or 37 °C in the appropriate medium at a 140 rpm shaking frequency.
(§4) The MICs for CAM-Cn-TPP and Cn-TPP were determined by Mueller-Hinton broth microdilution, as recommended by CLSI in the Methods for Dilution Antimicrobial Susceptibility Tests for Bacteria that Grow Aerobically, Approved Standard, 9th ed., CLSI document M07-A9, using in-house-prepared panels. The compounds were diluted in a 96-well microtiter plate to final concentrations ranging from 0.5 to 360 μM in a 250-µL aliquot of the bacterial suspension, followed by incubation at 37 °C or 30 °C for 18 h. […] The bacterial growth was observed visually alongside OD measurements. The experiments were carried out in triplicate.

Staphylococcus aureus = assay: MIC determination, broth microdilution; format: cell-based
From the text: as §2, §3, §4

[1] = test system: E. coli BW25113 ΔtolC pDualrep2 reporter strain; assay: pDualrep2 double fluorescent reporter assay on agar plate; format: cell-based; settings: for inhibition of cell growth (inhibition zone) of the reporter strain: 10 mM, 1.5 μL spotted on agar lawn; for induction of reporters (Katushka2S: ribosome stalling; RFP: DNA damage): compound spotted on agar lawn, overnight 37 °C
From the text: Next, we tested the effects of CAM-C10-TPP and CAM-C14-TPP in bacterial cells using an E. coli ∆tolC-based reporter system, which is designed to screen inhibitors targeting either protein synthesis or DNA replication. In this reporter system, the gene of the far-red fluorescent protein, katushka2S, is inserted downstream of the genetically modified tryptophan attenuator, making it possible to express Katushka2S only upon exposure to ribosome-stalling compounds (Figure 2B, CHL and ERY, red pseudocolor rings).
Reporter strain […] [71] ΔtolC (BW25113) pDualrep2 was used, as previously described. The tested antibiotics, CAM-C10-TPP (10 mM, 1.5 μL), CAM-C14-TPP (10 mM, 1.5 μL), C10-TPP (10 mM, 1.5 μL), C14-TPP (10 mM, 1.5 μL), CAM (10 mM, 1.5 μL), CAM-Ac (10 mM, 1.5 μL), chloramphenicol (CHL, 2 mM, 1 μL), erythromycin (Ery, 7 mM, 1 μL), and levofloxacin (Lev, 70 nM, 1 μL), were applied to an agar plate that already contained a lawn of the reporter strain. After being incubated overnight at 37 °C, the plate was scanned by ChemiDoc (Bio-Rad) in the modes, “Cy3-blot” for RFP and “Cy5-blot” for Katushka2S.

Bacillus subtilis = assay: MIC determination, broth microdilution; format: cell-based
From the text: as §2, §4

Mycobacterium smegmatis = assay: MIC determination, broth microdilution; format: cell-based; settings: Mycolicibacterium smegmatis
From the text: as §2, §4

E. coli ∆tolC = assay: MIC determination, broth microdilution; format: cell-based; settings: Escherichia coli
Description: (§5) E. coli ∆tolC CHL-resistant strain harboring plasmid encoding for chloramphenicol acetyltransferase (cat) (pCA24N-LacZ) and the control E. coli ∆tolC strain was used to evaluate the inhibitory effect of the compounds. CHL-resistant strains of B. subtilis pHT01-cat and B. subtilis pHT01-cfr were prepared by means of a transformation of a B. subtilis 168 strain with plasmids harboring the cat and cfr genes (chloramphenicol-florfenicol resistance) gene. The cfr gene encodes for the methyltransferase, which catalyzes the methylation of […] in the 23S rRNA and causes resistance to a variety of ribosome-targeting antibiotics that bind in the A site of the bacterial ribosome.
(§6) A standard laboratory strain of E. coli JW5503, with the deletion of the tolC gene, referred to here as the ∆tolC strain, was used to obtain the ∆tolC pCA24N-LacZ strain by means of transformation with the plasmid pCA24N-LacZ-harboring chloramphenicol acetyltransferase (cat) gene.
as §4

E. coli ∆tolC-CAT = assay: MIC determination, broth microdilution; format: cell-based; settings: Escherichia coli
Description: as §5, §6, §4

B. subtilis pHT01-cfr = assay: MIC determination, broth microdilution; format: cell-based; settings: Bacillus subtilis, PHT01CFR
Description: as §5
(§7) A standard laboratory strain of B. subtilis 168 was used to obtain the CHL-resistant strains, B. subtilis pHT01-CAT and B. subtilis pHT01-cfr, by means of transformation with the corresponding plasmids. Competent cell preparation and transformation procedures were conducted, as reported in [74, 75]. The desired colonies were selected at 10 µg/mL of CHL for B. subtilis pHT01 and 5 µg/mL or 3.2 µg/mL of CHL for B. subtilis pHT01-cfr.
as §4

B. subtilis pHT01-cat = assay: MIC determination, broth microdilution; format: cell-based; settings: Bacillus subtilis, PHT01CAT
Description: as §5, §7, §4

HEK293T = assay: MTT assay growth inhibition; format: cell-based; settings: Homo sapiens, HEK-293T, 72 h, read-out: 50% growth inhibition concentration (GI50)
Description: as §1

VA13 = assay: MTT assay growth inhibition; format: cell-based; settings: VA-13, 72 h, read-out: 50% growth inhibition concentration (GI50)
Description: as §1

MCF7 = assay: MTT assay growth inhibition; format: cell-based; settings: Homo sapiens, 72 h, read-out: 50% growth inhibition concentration (GI50)
Description: as §1

[2] = test system: Escherichia coli C600recA naI; assay: MIC determination, CHL resistant E. coli strains; format: cell-based; settings: C600RECANAI
From the text: as §2, §4

Escherichia coli J53rif = assay: MIC determination, CHL resistant E. coli strains; format: cell-based
From the text: as §2, §4

[3] = test system: Escherichia coli C600rif/pIP162-1; assay: MIC determination, CHL resistant E. coli strains; format: cell-based
From the text: as §2, §4

[4] = test system: Escherichia coli C600rif/pIB55-1; assay: MIC determination, CHL resistant E. coli strains; format: cell-based
From the text: as §2, §4

Row | Compound | GI50 (A549) [nM] | MIC (Listeria monocytogenes) [µM] | MIC (Staphylococcus aureus) [µM] | inhibition of cell growth (inhibition zone) of the reporter strain [1] | induction of reporters (Katushka2S: ribosome stalling; RFP: DNA damage) [1] | MIC (Bacillus subtilis) [µM] | MIC (Mycobacterium smegmatis) [µM] | MIC (E. coli ∆tolC) [µM] | MIC (E. coli ∆tolC-CAT) [µM] | MIC (B. subtilis pHT01-cfr) [µM] | MIC (B. subtilis pHT01-cat) [µM] | GI50 (HEK293T) [nM] | GI50 (VA13) [nM] | GI50 (MCF7) [nM] | MIC [2] [µM] | MIC (Escherichia coli J53rif) [µM] | MIC [3] [µM] | MIC [4] [µM]
1 | CCCCCCCCCCCCCC[P+](c1ccccc1)(c1ccccc1)c1ccccc1 [C14-TPP, tetradecyl(triphenyl)phosphonium bromide] | 25 ± 9 | 2 | 1.6 | inhibit bacterial cell growth | do not induce either of the two reporters | 8 | 4 | 1.6 | 6 | 0.8 | 1.6 | 30 ± 20 | 70 ± 50 | 20 ± 10 |  |  |  | 
2 | CC(=O)N[C@H](CO)[C@H](O)c1ccc([N+](=O)[O-])cc1 [CAM-Ac, N-acetyl-chloramphenicol amine] |  |  |  |  | neither the induction of either of the two reporters |  |  |  |  |  |  |  |  |  |  |  |  | 
3 | CC[C@H]1OC(=O)[C@H](C)[C@@H](O[C@H]2C[C@@](C)(OC)[C@@H](O)[C@H](C)O2)[C@H](C)[C@@H](O[C@@H]2O[C@H](C)C[C@H](N(C)C)[C@H]2O)[C@](C)(O)C[C@@H](C)C(=O)[C@H](C)[C@@H](O)[C@]1(C)O [ERY, erythromycin] |  |  |  |  | red pseudocolor rings are observed due to the expression of the fluorescent protein, Katushka2S (but not RFP) |  |  |  |  |  |  |  |  |  |  |  |  | 
4 | CCCCCCCCCC[P+](c1ccccc1)(c1ccccc1)c1ccccc1 [C10-TPP, decyl(triphenyl)phosphonium bromide] | 70 ± 10 | 5 | 2 | inhibit bacterial cell growth | do not induce either of the two reporters | 2 | < 2 | 3 | 3 | 0.8 | 1.6 | 80 ± 10 | 270 ± 50 | 210 ± 30 | 136 | 110 | 93 | 67
5 | C[C@H]1COc2c(N3CCN(C)CC3)c(F)cc3c(=O)c(C(=O)O)cn1c23 [LEV, levofloxacin] |  |  |  |  | green pseudocolored rings |  |  |  |  |  |  |  |  |  |  |  |  | 
6 | COc1cccc2c1C(=O)c1c(O)c3c(c(O)c1C2=O)C[C@@](O)(C(=O)CO)C[C@@H]3O[C@H]1C[C@H](N)[C@H](O)[C@H](C)O1 [Doxorubicin, doxorubicin] | 40 ± 10 |  |  |  |  |  |  |  |  |  |  | 7 ± 1 | 180 ± 40 | 40 ± 10 |  |  |  | 

Reference: publication PMC8145938, “Triphenilphosphonium Analogs of Chloramphenicol as Dual-Acting Antimicrobial and Antiproliferating Agents” (Antibiotics, 2021)
